Converted amounts (≈) assume the structure as drawn. Read-outs that look alike come from different tables or passages of the source.
Assays:
[1] = in vitro; conditions: human
[2] = test system: Coxsackie-virus B1; test: Cytopathic effect (CPE) inhibition assay; format: cell-based, Coxsackievirus B1; conditions: Enterovirus B, HeLa37, 48 h, HeLa, 37° C., 2 days
[3] = Table 3, read-out: EC50 Coxsackie-virus B1
[4] = Table 4, read-out: Coxsackie-virus B1 EC50

| SMILES | melting point | CC50 ([1]; CC50) | EC50 [2, 3] | CC50 ([1]; Picorna-virus CC50) | EC50 [2, 4] |
| --- | --- | --- | --- | --- | --- |
| CC(=O)c1ccc(C2(O)C(=O)c3ccccc3C2=O)c(O)c1 [Example 20, 2-(4-Acetyl-2-hydroxy-phenyl)-2-hydroxy-indan-1,3-dione] | 177 to 180 °C | > 100 µg/mL | – | – | – |
| CC(C)c1ccc(C2(O)C(=O)c3ccccc3C2=O)c(OCc2ccccc2)c1 [Example 24, 2-(2-Benzyloxy-4-isopropyl-phenyl)-2-hydroxy-indan-1,3-dione] | 197 to 199 °C | > 100 µg/mL | – | – | – |
| COC1(c2ccc(C(C)C)cc2OCc2ccccc2)C(=O)c2ccccc2C1=O [Example 25, 2-(2-Benzyloxy-4-isopropyl-phenyl)-2-methoxy-indan-1,3-dione] | 140 to 144 °C | > 100 µg/mL | – | – | – |
| Cc1cc(C2(O)C(=O)c3ccccc3C2=O)cc(C)c1O [Example 26, 2-Hydroxy-2-(4-hydroxy-3,5-dimethyl-phenyl)-indan-1,3-dione] | 210 to 213 °C | > 100 µg/mL | – | – | – |
| COc1ccc2c(c1)C(=O)C(OC(C)=O)(c1ccc(C(C)C)cc1OC(C)=O)C2=O (centres unmarked) [Example 27, 2-(2-Acetoxy-4-isopropylphenyl)-5-methoxy-1,3-dioxo-2,3-dihydro-1H-inden-2-yl acetate] | 146 to 148 °C | 9.5 µg/mL | – | – | – |
| COC1(c2ccc(C(C)C)cc2O)C(=O)c2ccccc2C1=O [Example 28, 2-(2-Hydroxy-4-isopropylphenyl)-2-methoxy-1H-inden-1,3(2H)-dione] | 272 to 274 °C | 9.2 µg/mL (≈ 29.6 µM) | – | – | – |
| CC(C)c1ccc(C2(OC(=O)C(C)(C)C)C(=O)c3ccccc3C2=O)c(OC(=O)C(C)(C)C)c1 [Example 29, 2-(1,3-Dioxo-2-(pivaloyloxy)-2,3-dihydro-1H-inden-2-yl)-5-isopropylphenyl pivalate] | 121 to 124 °C | > 100 µg/mL | – | – | – |
| C=CC(=O)Oc1cc(C(C)C)ccc1C1(OC(=O)C=C)C(=O)c2ccccc2C1=O [Example 32, 2-(2-(Acryloyloxy)-1,3-dioxo-2,3-dihydro-1H-inden-2-yl)-5-isopropylphenyl acrylate] | – | 28.7 µg/mL (≈ 70.9 µM) | < 0.01 µg/mL | – | – |
| CCN(CC)C(=O)Oc1cc(C(C)C)ccc1C1(OC(=O)N(CC)CC)C(=O)c2ccccc2C1=O [Example 33, Diethyl-carbamic acid 2-(2-diethylcarbamoyloxy-1,3-dioxo-indan-2-yl)-5-isopropyl-phenyl ester] | 103 to 105 °C | > 100 µg/mL | – | – | – |
| CCN(CC)C(=O)Oc1cc(C(C)C)ccc1C1(O)C(=O)c2ccccc2C1=O [Example 34, 2-(2-Hydroxy-1,3-dioxo-2,3-dihydro-1H-inden-2-yl)-5-isopropylphenyl diethylcarbamate] | 103 to 106 °C | 46.2 µg/mL (≈ 117 µM) | – | – | – |
| Cc1cc(C2(O)C(=O)c3ccccc3C2=O)c(C)cc1O [Example 35, 2-Hydroxy-2-(4-hydroxy-2,5-dimethylphenyl)-1H-inden-1,3(2H)-dione] | 228 to 230 °C | 59.8 µg/mL (≈ 212 µM) | – | – | – |
| CC(=O)Oc1cc(C(C)C)ccc1C1(OC(C)=O)C(=O)c2cccc([N+](=O)[O-])c2C1=O (centres unmarked) [Example 37, Acetic acid 2-(2-acetoxy-4-isopropyl-phenyl)-4-nitro-1,3-dioxo-indan-2-yl ester] | 94 to 98 °C | 62.7 µg/mL (≈ 147 µM) | – | – | – |
| COc1cc(C(C)C)ccc1C1(Cl)C(=O)c2cccc([N+](=O)[O-])c2C1=O (centres unmarked) [Example 39, 2-Chloro-2-(4-isopropyl-2-methoxyphenyl)-4-nitro-2H-inden-1,3-dione] | 81 to 84 °C | 6.67 µg/mL (≈ 17.8 µM) | – | – | – |
| COc1cc(C(C)C)ccc1C1(O)C(=O)c2c(NC(C)=O)ccc([N+](=O)[O-])c2C1=O (centres unmarked) [Example 42, N-(2-Hydroxy-2-(4-isopropyl-2-methoxyphenyl)-7-nitro-1,3-dioxo-2,3-dihydro-1H-inden-4-yl)acetamide] | 110 to 115 °C | 71.1 µg/mL (≈ 172 µM) | – | – | – |
| COc1cc(C(C)C)ccc1C1(O)C(=O)c2ccc([N+](=O)[O-])c(NC(C)=O)c2C1=O (centres unmarked) [Example 43, N-(2-Hydroxy-2-(4-isopropyl-2-methoxyphenyl)-5-nitro-1,3-dioxo-2,3-dihydro-1H-inden-4-yl)acetamide] | 199 to 201 °C | 61.7 µg/mL (≈ 150 µM) | – | – | – |
| COc1cc(C(C)C)ccc1C1(O)C(=O)c2ccc(N)c(NC(C)=O)c2C1=O (centres unmarked) [Example 45, N-(5-Amino-2-hydroxy-2-(4-isopropyl-2-methoxyphenyl)-1,3-dioxo-2,3-dihydro-1H-inden-4-yl)acetamide] | 124 to 131 °C | > 117 µg/mL | – | – | – |
| COc1cc(C(C)C)ccc1C1(O)C(=O)c2c(N)ccc(N)c2C1=O [Example 46, 4,7-Diamino-2-hydroxy-2-(4-isopropyl-2-methoxyphenyl)-2H-inden-1,3-dione] | 243 to 247 °C | 64 µg/mL (≈ 188 µM) | – | – | – |
| COc1cc(C(C)C)ccc1C1(O)C(=O)c2ccc(N)c(N)c2C1=O (centres unmarked) [Example 47, 4,5-Diamino-2-hydroxy-2-(4-isopropyl-2-methoxyphenyl)-2H-inden-1,3-dione] | 272 to 274 °C | 50.9 µg/mL (≈ 150 µM) | – | – | – |
| CC(C)C(=O)NC1(c2ccc(C(C)C)cc2OC(=O)C(C)C)C(=O)c2ccccc2C1=O [Example 50, 2-(2-Isobutylamido-1,3-dioxo-2,3-dihydro-1H-inden-2-yl)-5-isopropylphenyl isobutyrate] | – | 44.3 µg/mL (≈ 102 µM) | 0.0112 µg/mL (≈ 0.0257 µM) | – | – |

| SMILES | melting point | CC50 ([1]; CC50) | EC50 [2, 3] | CC50 ([1]; Picorna-virus CC50) | EC50 [2, 4] |
| --- | --- | --- | --- | --- | --- |
| CC(C)c1ccc(C2(O)Cc3ccccc3C2=O)c(O)c1 (centres unmarked) [Example 51, 2-Hydroxy-2-(2-hydroxy-4-isopropylphenyl)-2,3-dihydro-1H-inden-1-one] | 144 to 146 °C | 9.34 µg/mL (≈ 33.1 µM) | – | – | – |
| COc1cc(C(C)C)ccc1C1(N=[N+]=[N-])C(=O)c2ccccc2C1=O [Example 52, 2-Azido-2-(4-isopropyl-2-methoxyphenyl)-2H-inden-1,3-dione] | 175 to 177 °C | 27.7 µg/mL (≈ 82.5 µM) | – | – | – |
| COc1cc(C(C)C)ccc1C1(N)C(=O)c2ccccc2C1=O [Example 53, 2-Amino-2-(4-isopropyl-2-methoxyphenyl)-2H-inden-1,3-dione] | 164 to 166 °C | 10.2 µg/mL (≈ 33 µM) | – | – | – |
| COc1cc(C(C)C)ccc1C1(NC(=O)c2ccccc2)C(=O)c2ccccc2C1=O [Example 55, N-(2-(4-Isopropyl-2-methoxyphenyl)-1,3-dioxo-2,3-dihydro-1H-inden-2-yl)benzamide] | 106 to 108 °C | > 117 µg/mL | – | – | – |
| COc1cc(C(C)C)ccc1C1(NC(=O)C2CC2)C(=O)c2ccccc2C1=O [Example 56, N-(2-(4-Isopropyl-2-methoxyphenyl)-1,3-dioxo-2,3-dihydro-1H-inden-2-yl) cyclopropancarboxamide] | 145 to 147 °C | 87.8 µg/mL (≈ 233 µM) | – | – | – |
| CSc1ccccc1C1(O)C(=O)c2ccccc2C1=O [Example 57] | 191 to 193 °C | 48.2 µg/mL (≈ 170 µM) | – | – | – |
| CSc1ccc(C2(O)C(=O)c3ccccc3C2=O)cc1 [Example 58] | 153 to 155 °C | 47.8 µg/mL (≈ 168 µM) | – | – | – |
| COC(=O)NC1(c2ccc(C(C)C)cc2OC)C(=O)c2ccccc2C1=O [Example 59, Methyl 2-(4-isopropyl-2-methoxyphenyl)-1,3-dioxo-2,3-dihydro-1H-inden-2-ylcarbamate] | 153 to 155 °C | 53.7 µg/mL (≈ 146 µM) | – | – | – |
| CCNC(=O)NC1(c2ccc(C(C)C)cc2OC)C(=O)c2ccccc2C1=O [Example 60, 1-Ethyl-3-(2,3-dihydro-2-(4-isopropyl-2-methoxyphenyl)-1,3-dioxo-1H-inden-2-yl)urea] | 267 to 269 °C | 68.9 µg/mL (≈ 181 µM) | – | – | – |
| COc1cc(C(C)C)ccc1C1(NC(N)=O)C(=O)c2ccccc2C1=O [Example 61, 1-(2,3-Dihydro-2-(4-isopropyl-2-methoxyphenyl)-1,3-dioxo-1H-inden-2-yl)urea] | 272 to 274 °C | > 117 µg/mL | – | – | – |
| COc1cc(C(C)C)ccc1C1(NC(=O)OC(C)C)C(=O)c2ccccc2C1=O [Example 62, Isopropyl 2-(4-isopropyl-2-methoxyphenyl)-1,3-dioxo-2,3-dihydro-1H-inden-2-ylcarbamate] | 159 to 161 °C | 11.3 µg/mL (≈ 28.5 µM) | – | – | – |
| CONC(=O)NC1(c2ccc(C(C)C)cc2OC)C(=O)c2ccccc2C1=O [Example 63, 1-(2-(4-Isopropyl-2-methoxyphenyl)-1,3-dioxo-2,3-dihydro-1H-inden-2-yl)-3-methoxy urea] | 153 to 155 °C | > 117 µg/mL | – | – | – |
| CCOC(=O)NC1(c2ccc(C(C)C)cc2OC)C(=O)c2ccccc2C1=O [Example 64, Ethyl 2-(4-isopropyl-2-methoxyphenyl)-1,3-dioxo-2,3-dihydro-1H-inden-2-ylcarbamate] | 149 to 150 °C | 87.8 µg/mL (≈ 230 µM) | – | – | – |
| COc1cc(C(C)C)ccc1C1(Br)C(=O)c2cccc(NC(C)=O)c2C1=O (centres unmarked) [Example 65, N-(2-Bromo-2-(4-isopropyl-2-methoxyphenyl)-1,3-dioxo-2,3-dihydro-1H-inden-4-yl)acetamide] | 143 to 145 °C | 11.2 µg/mL (≈ 25.9 µM) | – | – | – |
| COc1cc(C(C)C)ccc1C1(N)C(=O)c2cccc(NC(C)=O)c2C1=O (centres unmarked) [Example 66, N-(2-Amino-2-(4-isopropyl-2-methoxyphenyl)-1,3-dioxo-2,3-dihydro-1H-inden-4-yl)acetamide] | 183 to 185 °C | 26.7 µg/mL (≈ 72.8 µM) | – | – | – |
| COc1cc(C(C)C)ccc1C1(NC(C)=O)C(=O)c2cccc(NC(C)=O)c2C1=O (centres unmarked) [Example 67, N,N′-(2-(4-Isopropyl-2-methoxyphenyl)-1,3-dioxo-2,3-dihydro-1H-inden-2,4-diyl)diacetamide] | 241 to 243 °C | 54.6 µg/mL (≈ 134 µM) | – | – | – |
| CCC(=O)Nc1cc(C)c(C)cc1C1(O)C(=O)c2ccccc2C1=O [Example 87, N-(2-(2-Hydroxy-1,3-dioxo-2,3-dihydro-1H-inden-2-yl)-4,5-dimethylphenyl)propionamide] | – | – | – | 8.31 µg/mL (≈ 24.6 µM) | 0.019 µg/mL (≈ 0.0563 µM) |
| CCCCCCCC(=O)NC1(c2ccc(C(C)C)cc2OC(=O)CCCCCCC)C(=O)c2cccc(N)c2C1=O (centres unmarked) [Example 91, 2-(4-Amino-2-octanamido-1,3-dioxo-2,3-dihydro-1H-inden-2-yl)-5-isopropylphenyl octanoate] | – | – | – | 40 µg/mL (≈ 71.1 µM) | 0.015 µg/mL (≈ 0.0267 µM) |
